Laboratory results as given in ChEMBL document CHEMBL1201862, “PubChem BioAssay data set” (2004).
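These data come from cells grown in 96-well plates and exposed to compound for 48 hours at five concentrations. GI50 = concentration required for 50% inhibition of growth.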 Active and inactive are the calls of the source. Cut-off read from the data, not from the text of the source: active = GI50 up to about 1.1 µM and inactive = higher.

Columns and labels:
Assay in all cases: growth of human tumour cells (NCI), 48 h
[1] = test system: COLO 205
[2] = test system: HT-29
[3] = test system: UACC-257
[4] = test system: SF-539
[5] = test system: M14
[6] = test system: DU-145
[7] = test system: T47D
[8] = test system: NCI/ADR-RES
[9] = test system: Hs-578T
[10] = test system: A498
[11] = test system: SF-268
[12] = test system: BT-549
[13] = test system: NCI-H460
[14] = test system: K562
[15] = test system: MDA-N
[16] = test system: RPMI-8226
[17] = test system: SK-MEL-5
[18] = test system: SNB-75
[19] = test system: OVCAR-5

Measured: GI50

O=C1NI(C#Cc2ccccc2)c2ccccc21
inactive: [1] 29.7 µM | [2] > 100 µM | [3] > 100 µM | [4] > 100 µM | [5] > 100 µM | [6] > 100 µM | [7] 53 µM | [8] > 100 µM | [9] > 100 µM | [10] > 100 µM | [11] > 100 µM | [12] > 100 µM | [13] > 100 µM | [14] > 100 µM | [15] > 100 µM | [16] 43.7 µM | [17] > 100 µM

CC1OC(O[C@H]2C3C=CO[C@@H](OC4OC(CO)C(O)C(O)C4O)C3[C@@]3(COC(=O)/C=C/c4ccc(O)cc4)O[C@@H]23)C(O)C(O)C1O (some centres undefined)
inactive: [1] > 100 µM | [18] > 100 µM | [2] > 100 µM | [19] > 100 µM | [3] > 100 µM | [5] > 100 µM | [6] > 100 µM | [7] > 100 µM | [8] > 100 µM | [9] > 100 µM | [10] > 100 µM | [11] > 100 µM | [12] > 100 µM | [13] > 100 µM | [14] > 100 µM | [15] > 100 µM | [16] > 100 µM | [17] > 100 µM

N=C(N)NS(=O)(=O)c1ccc(NC(=O)c2cccc3c(NNc4ccc(S(=O)(=O)N=C(N)N)cc4)c4ccccc4nc23)cc1
inactive: [1] 92.7 µM | [18] > 100 µM | [2] 31.1 µM | [19] > 100 µM | [3] > 100 µM | [4] > 100 µM | [5] > 100 µM | [6] > 100 µM | [7] 22.6 µM | [8] > 100 µM | [9] 54.7 µM | [11] 61.9 µM | [12] 33.3 µM | [13] 32.7 µM | [14] 28.1 µM | [15] 91.4 µM | [16] 37.9 µM | [17] 56.9 µM

O=C(/C=C(\Nc1ccccc1O)c1ccc(Br)cc1)C(Cl)(Cl)Cl
inactive: [1] 6.95 µM | [18] 13.7 µM | [2] 6.43 µM | [19] 12.1 µM | [3] 7.26 µM | [4] 12.7 µM | [5] 15.5 µM | [6] 3.03 µM | [7] 3.95 µM | [8] 11.4 µM | [9] 3.1 µM | [11] 11.7 µM | [12] 15 µM | [13] 3.21 µM | [14] 14.2 µM | [15] 4.69 µM | [16] 1.79 µM | [17] 14.2 µM

CC1=C(C(=O)NCC(C)O)CC(C(=O)NCC(C)O)=C(C)N1 (centres undefined)
inactive: [1] > 100 µM | [18] 72.9 µM | [2] > 100 µM | [19] > 100 µM | [3] > 100 µM | [4] > 100 µM | [5] > 100 µM | [6] > 100 µM | [7] > 100 µM | [8] > 100 µM | [9] > 100 µM | [11] > 100 µM | [12] > 100 µM | [13] > 100 µM | [14] > 100 µM | [15] > 100 µM | [16] > 100 µM | [17] > 100 µM

CCc1n[nH]c(=O)n1N
inactive: [1] > 100 µM | [18] > 100 µM | [2] > 100 µM | [19] > 100 µM | [3] > 100 µM | [4] > 100 µM | [5] > 100 µM | [6] > 100 µM | [7] > 100 µM | [8] > 100 µM | [9] > 100 µM | [10] > 100 µM | [11] > 100 µM | [12] > 100 µM | [13] > 100 µM | [14] > 100 µM | [16] > 100 µM | [17] > 100 µM

O=C(O)C1CSC2(CCCN(Cc3ccccc3)C2)N1 (centres undefined)
inactive: [1] > 100 µM | [18] > 100 µM | [2] > 100 µM | [19] > 100 µM | [3] > 100 µM | [4] > 100 µM | [5] > 100 µM | [6] > 100 µM | [7] > 100 µM | [8] > 100 µM | [9] > 100 µM | [10] > 100 µM | [11] > 100 µM | [12] > 100 µM | [13] > 100 µM | [14] > 28.8 µM | [15] > 100 µM | [17] > 100 µM

COc1cc(/C=C2/C[C@H]3[C@@H]4CCC5=CC(=O)CC[C@]5(C)[C@H]4CC[C@]3(C)NC2=O)cc(OC)c1OC
inactive: [1] 18.5 µM | [18] 15.6 µM | [2] 19.3 µM | [19] 13.1 µM | [3] 20.7 µM | [5] 27.4 µM | [6] 21 µM | [7] 13 µM | [8] 25.1 µM | [9] 23 µM | [10] 11.6 µM | [11] 26.3 µM | [12] 21.6 µM | [13] 28.4 µM | [15] 26.4 µM | [16] 9.64 µM | [17] 11.9 µM

c1ccc(/N=C(/Nc2ccccc2)N2CCCCC2)cc1
inactive: [1] 59 µM | [18] 16.7 µM | [2] 39.6 µM | [19] > 100 µM | [3] 21.6 µM | [5] 22.3 µM | [6] > 10 µM | [7] > 100 µM | [8] > 100 µM | [9] 18.7 µM | [11] > 100 µM | [12] > 100 µM | [13] 73.3 µM | [14] 40 µM | [15] 43.3 µM | [16] 97.9 µM | [17] > 10 µM

Cc1ccc(Nc2cc(=O)[nH]c(=O)[nH]2)cc1CS
inactive: [1] > 100 µM | [18] > 100 µM | [2] > 100 µM | [19] > 100 µM | [3] > 100 µM | [4] > 100 µM | [5] > 100 µM | [7] > 100 µM | [8] > 100 µM | [9] > 100 µM | [10] > 100 µM | [11] 61.4 µM | [12] 58.1 µM | [13] > 100 µM | [14] > 100 µM | [15] > 100 µM | [16] > 100 µM | [17] > 100 µM

O=[N+]([O-])c1ccc(Cl)cc1N/N=C/c1cccs1
inactive: [1] > 100 µM | [18] > 100 µM | [2] > 100 µM | [3] > 100 µM | [4] > 100 µM | [5] > 100 µM | [6] > 100 µM | [7] 26.4 µM | [8] > 100 µM | [9] 72.4 µM | [11] > 100 µM | [12] > 100 µM | [13] > 100 µM | [14] > 100 µM | [15] > 100 µM | [16] > 100 µM | [17] > 100 µM
